Measured values taken from patent US9186318B2, “Quinolyl-containing hydroxamic acid compound and preparation method thereof, and pharmaceutical composition containing this compound and use thereof” (Beijing Konruns Pharmaceutical Co., Ltd, priority 2011, dated 2015).

Tests used:
Assay in all cases: KinomeScan 96-kinase panel
Format in all cases: binding
Conditions in all cases: compound concentration 1000 nM
ADCK3 = ADCK3 (Homo sapiens (Human), UniProt Q8NI60)
Description: (§1) The details of the screening technology were described in Fabian, M. A. et al, Nat., Biotechnol. 2005, 23, 329 and Karaman, M. W. et al, Nat., Biotechnol. 2008, 26, 127. From the above representative results, it can be seen that the compounds of the present invention have potent inhibitory activities on kinases including ALK, AXL, VEGFR2, PDGFR-α, PDGFR-β, c-KIT, Flt3, MEK1, MEK2, CSF1R, EPHA2, EPHA2, MKNK2, SRC, TIE2 and their mutants. Accordingly, the compounds of the present invention can be used for the treatment of diseases caused by abnormal activities of these kinases, e.g., cancer, psoriasis, hepatic cirrhosis, diabetes, diseases involving angiogenesis, eye diseases, immune system diseases, cardiovascular diseases, and so forth.

AKT1 = AKT1 (Homo sapiens (Human), UniProt P31749)
Description: as §1

AXL = AXL (Homo sapiens (Human), UniProt P30530)
Description: as §1

BRAF = BRAF (Homo sapiens (Human), UniProt P15056)
Description: as §1

BTK = BTK (Homo sapiens (Human), UniProt Q06187)
Description: as §1

CDK3 = CDK3 (Homo sapiens (Human), UniProt Q00526)
Description: as §1

CDK9 = CDK9 (Homo sapiens (Human), UniProt P50750)
Sequence of CDK9 (P50750 whole entry): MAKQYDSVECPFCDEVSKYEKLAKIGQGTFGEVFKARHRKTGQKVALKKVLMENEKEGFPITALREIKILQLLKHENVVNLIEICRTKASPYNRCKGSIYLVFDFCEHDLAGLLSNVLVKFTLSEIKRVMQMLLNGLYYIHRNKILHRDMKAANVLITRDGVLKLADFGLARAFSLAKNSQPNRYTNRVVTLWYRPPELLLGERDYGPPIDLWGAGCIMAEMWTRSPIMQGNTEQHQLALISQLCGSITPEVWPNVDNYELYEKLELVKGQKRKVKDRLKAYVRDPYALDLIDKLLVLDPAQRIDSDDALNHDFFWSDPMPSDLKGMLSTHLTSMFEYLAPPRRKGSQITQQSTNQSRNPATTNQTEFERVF
Description: as §1

CSNK1G2 = CSNK1G2 (Homo sapiens (Human), UniProt P78368)
Sequence of CSNK1G2 (P78368 whole entry): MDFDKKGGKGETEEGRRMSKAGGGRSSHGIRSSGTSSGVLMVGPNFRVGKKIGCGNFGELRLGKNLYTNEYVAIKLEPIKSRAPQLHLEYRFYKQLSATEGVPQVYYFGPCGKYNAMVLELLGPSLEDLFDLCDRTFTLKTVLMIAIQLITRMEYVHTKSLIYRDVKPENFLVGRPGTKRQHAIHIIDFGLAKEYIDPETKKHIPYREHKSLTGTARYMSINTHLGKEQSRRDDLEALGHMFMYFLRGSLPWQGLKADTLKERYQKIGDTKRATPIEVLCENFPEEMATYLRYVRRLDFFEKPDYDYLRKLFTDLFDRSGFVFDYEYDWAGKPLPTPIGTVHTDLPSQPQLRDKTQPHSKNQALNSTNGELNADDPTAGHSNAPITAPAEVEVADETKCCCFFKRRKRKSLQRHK
Description: as §1

DCAMKL1 = DCAMKL1 (Homo sapiens (Human), UniProt O15075)
Description: as §1

DYRK1B = DYRK1B (Homo sapiens (Human), UniProt Q9Y463)
Description: as §1

EGFR(L858R) = EGFR(L858R) (Homo sapiens (Human), UniProt P00533, L858R)
Description: as §1

EPHA2 = EPHA2 (Homo sapiens (Human), UniProt P29317)
Description: as §1

ERBB2 = ERBB2 (Homo sapiens (Human), UniProt P04626)
Description: as §1

ERK1 = ERK1 (Homo sapiens (Human), UniProt P27361)
Sequence of ERK1 (P27361 whole entry): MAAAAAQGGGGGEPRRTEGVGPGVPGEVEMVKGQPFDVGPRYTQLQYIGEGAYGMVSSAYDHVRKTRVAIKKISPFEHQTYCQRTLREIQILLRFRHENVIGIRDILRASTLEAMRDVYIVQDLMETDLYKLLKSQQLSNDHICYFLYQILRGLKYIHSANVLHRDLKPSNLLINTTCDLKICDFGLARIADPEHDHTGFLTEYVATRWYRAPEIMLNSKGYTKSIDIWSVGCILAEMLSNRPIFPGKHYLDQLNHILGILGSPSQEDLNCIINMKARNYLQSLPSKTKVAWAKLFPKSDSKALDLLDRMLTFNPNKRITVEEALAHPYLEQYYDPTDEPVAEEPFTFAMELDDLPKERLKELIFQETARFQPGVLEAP
Description: as §1

FAK = FAK (Homo sapiens (Human), UniProt Q05397)
Description: as §1

IGF1R = IGF1R (Homo sapiens (Human), UniProt P08069)
Description: as §1

INSR = INSR (Homo sapiens (Human), UniProt P06213)
Description: as §1

[1] = target: JAK2 (JH1domain-catalytic) (Homo sapiens (Human), UniProt O60674)
Sequence of JAK2 (JH1domain-catalytic) (O60674 849-1124): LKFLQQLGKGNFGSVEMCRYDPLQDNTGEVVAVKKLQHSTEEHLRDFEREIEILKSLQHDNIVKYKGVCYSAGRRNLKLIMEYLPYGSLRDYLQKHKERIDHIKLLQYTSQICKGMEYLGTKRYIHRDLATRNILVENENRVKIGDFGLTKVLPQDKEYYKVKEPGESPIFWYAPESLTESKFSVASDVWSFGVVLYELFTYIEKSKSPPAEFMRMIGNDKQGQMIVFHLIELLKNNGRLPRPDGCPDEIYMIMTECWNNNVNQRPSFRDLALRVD
Description: as §1

JNK1 = JNK1 (Homo sapiens (Human), UniProt P45983)
Description: as §1

MAPKAPK2 = MAPKAPK2 (Homo sapiens (Human), UniProt P49137)
Sequence of MAPKAPK2 (P49137 whole entry): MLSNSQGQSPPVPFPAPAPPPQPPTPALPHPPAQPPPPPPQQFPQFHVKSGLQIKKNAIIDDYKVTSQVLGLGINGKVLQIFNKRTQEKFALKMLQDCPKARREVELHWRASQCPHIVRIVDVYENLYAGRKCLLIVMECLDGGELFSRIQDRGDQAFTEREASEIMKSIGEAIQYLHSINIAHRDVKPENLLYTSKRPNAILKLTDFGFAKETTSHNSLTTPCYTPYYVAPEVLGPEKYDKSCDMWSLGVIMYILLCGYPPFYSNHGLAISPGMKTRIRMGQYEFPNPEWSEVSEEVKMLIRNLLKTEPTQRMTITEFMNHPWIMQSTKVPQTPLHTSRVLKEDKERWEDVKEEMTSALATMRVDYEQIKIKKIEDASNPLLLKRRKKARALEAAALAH
Description: as §1

MARK3 = MARK3 (Homo sapiens (Human), UniProt P27448)
Sequence of MARK3 (P27448 whole entry): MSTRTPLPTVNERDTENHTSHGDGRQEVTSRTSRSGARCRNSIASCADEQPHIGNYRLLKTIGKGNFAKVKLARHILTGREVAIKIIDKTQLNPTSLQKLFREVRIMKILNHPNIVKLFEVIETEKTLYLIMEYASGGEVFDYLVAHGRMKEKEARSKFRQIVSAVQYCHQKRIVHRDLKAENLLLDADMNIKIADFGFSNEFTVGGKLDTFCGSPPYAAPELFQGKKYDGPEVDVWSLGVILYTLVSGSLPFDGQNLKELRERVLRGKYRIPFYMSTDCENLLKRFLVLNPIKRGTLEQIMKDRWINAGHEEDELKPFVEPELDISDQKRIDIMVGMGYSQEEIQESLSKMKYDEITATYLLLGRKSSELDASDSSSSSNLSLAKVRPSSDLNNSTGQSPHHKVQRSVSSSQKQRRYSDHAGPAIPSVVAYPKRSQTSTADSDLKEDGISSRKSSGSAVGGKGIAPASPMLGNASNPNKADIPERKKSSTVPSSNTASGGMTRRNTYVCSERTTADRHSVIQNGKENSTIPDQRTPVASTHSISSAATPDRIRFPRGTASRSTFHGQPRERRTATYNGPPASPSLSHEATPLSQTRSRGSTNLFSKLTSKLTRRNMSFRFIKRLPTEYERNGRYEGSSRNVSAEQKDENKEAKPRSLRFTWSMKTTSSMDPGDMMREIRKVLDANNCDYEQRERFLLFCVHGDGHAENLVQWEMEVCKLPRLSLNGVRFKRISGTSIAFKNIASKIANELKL
Description: as §1

MEK2 = MEK2 (Homo sapiens (Human), UniProt P36507)
Description: as §1

MKNK1 = MKNK1 (Homo sapiens (Human), UniProt Q9BUB5)
Description: as §1

PCTK1 = PCTK1 (Homo sapiens (Human), UniProt Q00536)
Description: as §1

PDGFRA = PDGFRA (Homo sapiens (Human), UniProt P16234)
Description: as §1

PIK3C2B = PIK3C2B (Homo sapiens (Human), UniProt O00750)
Description: as §1

PIM1 = PIM1 (Homo sapiens (Human), UniProt P11309)
Description: as §1

PIM2 = PIM2 (Homo sapiens (Human), UniProt Q9P1W9)
Description: as §1

PKAC-alpha = PKAC-alpha (Homo sapiens (Human), UniProt P17612)
Description: as §1

PRKCE = PRKCE (Homo sapiens (Human), UniProt Q02156)
Sequence of PRKCE (Q02156 whole entry): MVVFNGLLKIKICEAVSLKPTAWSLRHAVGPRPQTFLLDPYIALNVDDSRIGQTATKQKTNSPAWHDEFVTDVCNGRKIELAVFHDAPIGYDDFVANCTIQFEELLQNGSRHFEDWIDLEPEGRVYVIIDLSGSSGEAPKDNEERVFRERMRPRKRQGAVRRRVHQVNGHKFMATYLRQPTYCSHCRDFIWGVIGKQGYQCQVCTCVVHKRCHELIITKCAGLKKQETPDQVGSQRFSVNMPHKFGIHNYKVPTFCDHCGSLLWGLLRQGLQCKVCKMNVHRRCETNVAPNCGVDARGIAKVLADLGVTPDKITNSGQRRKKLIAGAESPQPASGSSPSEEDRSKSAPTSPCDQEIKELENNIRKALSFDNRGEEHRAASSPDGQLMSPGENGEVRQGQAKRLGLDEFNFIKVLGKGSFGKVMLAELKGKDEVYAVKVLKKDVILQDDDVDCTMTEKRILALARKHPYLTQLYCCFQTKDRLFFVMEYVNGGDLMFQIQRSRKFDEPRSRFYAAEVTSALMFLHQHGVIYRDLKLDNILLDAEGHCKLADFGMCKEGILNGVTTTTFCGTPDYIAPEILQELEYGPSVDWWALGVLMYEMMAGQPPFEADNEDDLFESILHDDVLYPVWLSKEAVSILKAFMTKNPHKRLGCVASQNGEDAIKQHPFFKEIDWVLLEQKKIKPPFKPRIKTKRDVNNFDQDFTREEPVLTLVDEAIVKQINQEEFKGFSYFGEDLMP
Description: as §1

[2] = target: RSK2 (Kin.Dom.1-N-terminal) (Homo sapiens (Human), UniProt P51812)
Description: as §1

SNARK = SNARK (Homo sapiens (Human), UniProt Q9H093)
Description: as §1

SRC = SRC (Homo sapiens (Human), UniProt P12931)
Description: as §1

TRKA = TRKA (Homo sapiens (Human), UniProt P04629)
Description: as §1

[3] = target: TYK2 (JH1domain-catalytic) (Homo sapiens (Human), UniProt P29597)
Description: as §1

ULK2 = ULK2 (Homo sapiens (Human), UniProt Q8IYT8)
Sequence of ULK2 (Q8IYT8 whole entry): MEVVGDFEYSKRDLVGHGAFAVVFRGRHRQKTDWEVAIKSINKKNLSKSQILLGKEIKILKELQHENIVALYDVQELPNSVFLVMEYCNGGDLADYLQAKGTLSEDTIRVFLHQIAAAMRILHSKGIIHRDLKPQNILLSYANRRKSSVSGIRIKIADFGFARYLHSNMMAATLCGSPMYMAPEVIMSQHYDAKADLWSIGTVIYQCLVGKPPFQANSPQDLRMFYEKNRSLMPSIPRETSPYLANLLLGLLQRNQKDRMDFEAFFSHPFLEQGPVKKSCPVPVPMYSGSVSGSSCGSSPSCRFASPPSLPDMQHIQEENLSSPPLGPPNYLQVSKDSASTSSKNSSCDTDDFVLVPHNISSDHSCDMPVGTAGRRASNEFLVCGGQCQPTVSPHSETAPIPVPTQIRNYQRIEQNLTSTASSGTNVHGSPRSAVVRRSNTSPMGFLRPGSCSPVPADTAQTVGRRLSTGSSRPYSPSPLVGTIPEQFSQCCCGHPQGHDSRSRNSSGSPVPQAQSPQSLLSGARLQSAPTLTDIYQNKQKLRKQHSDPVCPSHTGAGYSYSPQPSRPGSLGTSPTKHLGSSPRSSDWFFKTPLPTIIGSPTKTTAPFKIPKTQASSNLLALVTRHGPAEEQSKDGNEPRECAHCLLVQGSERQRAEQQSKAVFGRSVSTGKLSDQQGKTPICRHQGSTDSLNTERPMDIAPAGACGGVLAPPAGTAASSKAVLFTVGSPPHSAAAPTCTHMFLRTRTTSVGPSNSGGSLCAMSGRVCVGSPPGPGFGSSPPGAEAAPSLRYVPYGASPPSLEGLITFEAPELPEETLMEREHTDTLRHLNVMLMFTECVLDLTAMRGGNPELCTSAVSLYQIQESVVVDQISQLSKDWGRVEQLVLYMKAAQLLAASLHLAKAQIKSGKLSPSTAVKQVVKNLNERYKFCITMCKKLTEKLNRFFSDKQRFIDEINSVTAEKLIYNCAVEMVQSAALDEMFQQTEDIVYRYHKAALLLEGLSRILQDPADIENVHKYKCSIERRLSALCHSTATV
Description: as §1

ZAP70 = ZAP70 (Homo sapiens (Human), UniProt P43403)
Sequence of ZAP70 (P43403 whole entry): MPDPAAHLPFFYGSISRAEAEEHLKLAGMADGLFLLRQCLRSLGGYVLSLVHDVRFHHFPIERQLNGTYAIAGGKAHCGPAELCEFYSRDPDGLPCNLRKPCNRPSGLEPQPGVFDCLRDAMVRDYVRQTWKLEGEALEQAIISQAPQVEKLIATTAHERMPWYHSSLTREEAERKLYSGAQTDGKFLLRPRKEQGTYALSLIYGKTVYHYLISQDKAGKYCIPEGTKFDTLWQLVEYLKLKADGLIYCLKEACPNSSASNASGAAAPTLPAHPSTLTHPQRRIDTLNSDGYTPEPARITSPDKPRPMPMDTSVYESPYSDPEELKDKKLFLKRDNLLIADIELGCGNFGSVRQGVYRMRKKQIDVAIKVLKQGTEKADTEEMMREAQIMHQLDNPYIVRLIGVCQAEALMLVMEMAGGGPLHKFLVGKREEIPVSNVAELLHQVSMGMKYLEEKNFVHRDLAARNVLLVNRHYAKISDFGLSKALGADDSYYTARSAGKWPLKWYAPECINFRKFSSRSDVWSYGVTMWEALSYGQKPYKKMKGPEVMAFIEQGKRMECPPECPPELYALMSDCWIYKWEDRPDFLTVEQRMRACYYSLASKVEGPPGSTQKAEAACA
Description: as §1

- % Ctrl@1000 nM (ADCK3): 100 % Ctrl
- % Ctrl@1000 nM (AKT1): 100 % Ctrl
- % Ctrl@1000 nM (AXL): 1.2 % Ctrl
- % Ctrl@1000 nM (BRAF): 87 % Ctrl
- % Ctrl@1000 nM (BTK): 2.6 % Ctrl
- % Ctrl@1000 nM (CDK3): 100 % Ctrl
- % Ctrl@1000 nM (CDK9): 67 % Ctrl
- % Ctrl@1000 nM (CSNK1G2): 99 % Ctrl
- % Ctrl@1000 nM (DCAMKL1): 100 % Ctrl
- % Ctrl@1000 nM (DYRK1B): 63 % Ctrl
- % Ctrl@1000 nM (EGFR(L858R)): 5.7 % Ctrl
- % Ctrl@1000 nM (EPHA2): 0.9 % Ctrl
- % Ctrl@1000 nM (ERBB2): 15 % Ctrl
- % Ctrl@1000 nM (ERK1): 94 % Ctrl
- % Ctrl@1000 nM (FAK): 12 % Ctrl
- % Ctrl@1000 nM (IGF1R): 21 % Ctrl
- % Ctrl@1000 nM (INSR): 6 % Ctrl
- % Ctrl@1000 nM [1]: 64 % Ctrl
- % Ctrl@1000 nM (JNK1): 100 % Ctrl
- % Ctrl@1000 nM (MAPKAPK2): 67 % Ctrl
- % Ctrl@1000 nM (MARK3): 73 % Ctrl
- % Ctrl@1000 nM (MEK2): 1.8 % Ctrl
- % Ctrl@1000 nM (MKNK1): 8.8 % Ctrl
- % Ctrl@1000 nM (PCTK1): 100 % Ctrl
- % Ctrl@1000 nM (PDGFRA): 1.8 % Ctrl
- % Ctrl@1000 nM (PIK3C2B): 99 % Ctrl
- % Ctrl@1000 nM (PIM1): 100 % Ctrl
- % Ctrl@1000 nM (PIM2): 100 % Ctrl
- % Ctrl@1000 nM (PKAC-alpha): 100 % Ctrl
- % Ctrl@1000 nM (PRKCE): 100 % Ctrl
- % Ctrl@1000 nM [2]: 96 % Ctrl
- % Ctrl@1000 nM (SNARK): 91 % Ctrl
- % Ctrl@1000 nM (SRC): 0.15 % Ctrl
- % Ctrl@1000 nM (TRKA): 0.5 % Ctrl
- % Ctrl@1000 nM [3]: 98 % Ctrl
- % Ctrl@1000 nM (ULK2): 100 % Ctrl
- % Ctrl@1000 nM (ZAP70): 80 % Ctrl
SMILES: COc1cc2c(Oc3ccc(NC(=O)C4(C(=O)Nc5ccc(F)cc5)CC4)cc3F)ccnc2cc1OCCCCCC(=O)NO [Example 13, N1′-[3-fluoro-4-[[7-[6-(hydroxyamino)-6-oxohexyloxy]-6-methoxy-4-quinolyl]oxy]phenyl]-N1-(4-fluorophenyl)cyclopropane-1,1-dicarboxamide]
